Source: ChEMBL document CHEMBL1201861, “Genomics of Drug Sensitity in Cancer screening data, Wellcome Trust Sanger Institute”

What was measured:
Test in all cases: cells
COR-L105 = type: functional, cell-based, Homo sapiens; settings: Homo sapiens, COR-L105;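 note: cell growth inhibition determined with a viability assay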
Description: SANGER: Inhibition of human COR-L105 cell growth in a cell viability assay.

Calu-3 = type: functional, cell-based, Homo sapiens; settings: Homo sapiens, Calu-3;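 note: growth inhibition of human Calu-3 cells, determined with a cell viability assay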
Description: SANGER: Inhibition of human Calu-3 cell growth in a cell viability assay.

D-336MG = type: functional, cell-based, Homo sapiens; settings: Homo sapiens, D-336MG
Description: SANGER: Inhibition of human D-336MG cell growth in a cell viability assay.

D-392MG = type: functional, cell-based, Homo sapiens; settings: Homo sapiens, D-392MG
DK-MG = type: functional, cell-based, Homo sapiens; settings: Homo sapiens, DK-MG;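 note: growth inhibition of DK-MG cells, read out with a cell viability assay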
Description: SANGER: Inhibition of human DK-MG cell growth in a cell viability assay.

DMS-79 = type: functional, cell-based; settings: Homo sapiens;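 note: growth inhibition measured with a cell viability assay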
Description: SANGER: Inhibition of human DMS-79 cell growth in a cell viability assay.

EC-GI-10 = type: functional, cell-based, Homo sapiens; settings: Homo sapiens, EC-GI-10
Description: SANGER: Inhibition of human EC-GI-10 cell growth in a cell viability assay.

EKVX = type: functional, cell-based, Homo sapiens; settings: Homo sapiens, EKVX;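 note: growth inhibition of human EKVX cells, read out with a cell viability assay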
Description: SANGER: Inhibition of human EKVX cell growth in a cell viability assay.

EW-1 = type: functional, cell-based, Homo sapiens; settings: Homo sapiens, EW-1;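 note: growth inhibition of the human EW-1 cell line, read out by a cell viability assay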
Description: SANGER: Inhibition of human EW-1 cell growth in a cell viability assay.

EW-24 = type: functional, cell-based; settings: Homo sapiens;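 note: human EW-24 cancer cell line, growth inhibition read out via a cell viability assay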
Description: SANGER: Inhibition of human EW-24 cell growth in a cell viability assay.

HLE = type: functional, cell-based, Homo sapiens; settings: Homo sapiens, HLE;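 note: growth inhibition of human HLE cells, read out by a cell viability assay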
Description: SANGER: Inhibition of human HLE cell growth in a cell viability assay.

HSC-3 = type: functional, cell-based, Homo sapiens; settings: Homo sapiens, HSC-3
Description: SANGER: Inhibition of human HSC-3 cell growth in a cell viability assay.

HT-1376 = type: functional, cell-based, Homo sapiens; settings: Homo sapiens, HT-1376
Description: SANGER: Inhibition of human HT-1376 cell growth in a cell viability assay.

Hs-578T = type: functional, cell-based, Homo sapiens; settings: Homo sapiens, Hs-578T
Description: SANGER: Inhibition of human Hs-578-T cell growth in a cell viability assay.

LN-405 = type: functional, cell-based, Homo sapiens; settings: Homo sapiens, LN-405
Description: SANGER: Inhibition of human LN-405 cell growth in a cell viability assay.

LU-99A = type: functional, cell-based, Homo sapiens; settings: Homo sapiens, LU-99A;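 note: growth inhibition of LU-99A cells, read out with a cell viability assay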
Description: SANGER: Inhibition of human LU-99A cell growth in a cell viability assay.

MDA-MB-361 = type: functional, cell-based, Homo sapiens; settings: Homo sapiens, MDA-MB-361
MDA-MB-415 = type: functional, cell-based; settings: Homo sapiens
MSTO-211H = type: functional, cell-based, Homo sapiens; settings: Homo sapiens, MSTO-211H
Description: SANGER: Inhibition of human MSTO-211H cell growth in a cell viability assay.

Mo = type: functional, cell-based; settings: Homo sapiens
Description: SANGER: Inhibition of human Mo-T cell growth in a cell viability assay.

NCI-H2030 = type: functional, cell-based, Homo sapiens; settings: Homo sapiens, NCI-H2030;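 note: growth inhibition of human NCI-H2030 cells, read out by a cell viability assay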
Description: SANGER: Inhibition of human NCI-H2030 cell growth in a cell viability assay.

NCI-H2052 = type: functional, cell-based, Homo sapiens; settings: Homo sapiens, NCI-H2052;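 note: growth inhibition of NCI-H2052 cells, read out with a cell viability assay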
Description: SANGER: Inhibition of human NCI-H2052 cell growth in a cell viability assay.

NCI-H226 = type: functional, cell-based, Homo sapiens; settings: Homo sapiens, NCI-H226;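 note: cell viability read-out used to gauge growth inhibition of the cells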
Description: SANGER: Inhibition of human NCI-H226 cell growth in a cell viability assay.

NCI-H596 = type: functional, cell-based, Homo sapiens; settings: Homo sapiens, NCI-H596;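 note: growth inhibition of NCI-H596 cells, read out with a cell viability assay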
Description: SANGER: Inhibition of human NCI-H596 cell growth in a cell viability assay.

PANC-03-27 = type: functional, cell-based, Homo sapiens; settings: Homo sapiens, PANC-03-27
Description: SANGER: Inhibition of human PANC-03-27 cell growth in a cell viability assay.

PC-14 = type: functional, cell-based, Homo sapiens; settings: Homo sapiens, PC-14;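 note: cell viability assay measuring inhibition of PC-14 cell growth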
Description: SANGER: Inhibition of human PC-14 cell growth in a cell viability assay.

QIMR-WIL = type: functional, cell-based; settings: Homo sapiens;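 note: growth inhibition of QIMR-WIL cells, read out with a cell viability assay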
Description: SANGER: Inhibition of human QIMR-WIL cell growth in a cell viability assay.

RERF-LC-MS = type: functional, cell-based, Homo sapiens; settings: Homo sapiens, RERF-LC-MS;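 note: growth inhibition of human RERF-LC-MS cells, read out by a cell viability assay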
Description: SANGER: Inhibition of human RERF-LC-MS cell growth in a cell viability assay.

SK-HEP1 = type: functional, cell-based, Homo sapiens, SK-HEP-1; settings: Homo sapiens, SK-HEP1;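 note: cell viability readout used to quantify reduction in proliferation of human SK-HEP-1 cells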
Description: SANGER: Inhibition of human SK-HEP-1 cell growth in a cell viability assay.

SK-MEL3 = type: functional, cell-based, Homo sapiens, SK-MEL-3; settings: Homo sapiens, SK-MEL3;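 note: growth inhibition of human SK-MEL-3 cells, read out with a cell viability assay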
Description: SANGER: Inhibition of human SK-MEL-3 cell growth in a cell viability assay.

SN12C = type: functional, cell-based, Homo sapiens; settings: Homo sapiens, SN12C;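 note: growth inhibition of human SN12C cells, measured by a cell viability assay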
Description: SANGER: Inhibition of human SN12C cell growth in a cell viability assay.

SNB-75 = type: functional, cell-based, Homo sapiens; settings: Homo sapiens, SNB-75;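 note: cell viability assay measuring growth inhibition of human SNB-75 cells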
Description: SANGER: Inhibition of human SNB75 cell growth in a cell viability assay.

SW1088 = type: functional, cell-based, Homo sapiens; settings: Homo sapiens, SW1088;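 note: growth inhibition of human SW1088 cells, read out by a cell viability assay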
Description: SANGER: Inhibition of human SW1088 cell growth in a cell viability assay.

SW13 = type: functional, cell-based, Homo sapiens; settings: Homo sapiens, SW13;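 note: IC50 is inhibition of SW13 cell growth, read out with a cell viability assay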
Description: SANGER: Inhibition of human SW13 cell growth in a cell viability assay.

SW1417 = type: functional, cell-based, Homo sapiens; settings: Homo sapiens, SW1417;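 note: growth inhibition of human SW1417 cells, read out with a cell viability assay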
Description: SANGER: Inhibition of human SW1417 cell growth in a cell viability assay.

TCC-SUP = type: functional, cell-based, Homo sapiens; settings: Homo sapiens, TCC-SUP;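 note: growth inhibition of TCC-SUP cells, read out with a cell viability assay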
Description: SANGER: Inhibition of human TCCSUP cell growth in a cell viability assay.

8305C = type: functional, cell-based, Homo sapiens; settings: Homo sapiens, 8305C
Description: SANGER: Inhibition of human 8305C cell growth in a cell viability assay.

A-431 = type: functional, cell-based, Homo sapiens; settings: Homo sapiens, A-431;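 note: growth inhibition of A-431 cells, determined with a cell viability read-out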
Description: SANGER: Inhibition of human A431 cell growth in a cell viability assay.

A498 = type: functional, cell-based, Homo sapiens; settings: Homo sapiens, A498;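 note: growth inhibition of human A498 cells, read out with a cell viability assay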
Description: SANGER: Inhibition of human A498 cell growth in a cell viability assay.

A673 = type: functional, cell-based, Homo sapiens; settings: Homo sapiens, A673;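 note: growth inhibition of human A673 cells, read out through a cell viability assay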
Description: SANGER: Inhibition of human A673 cell growth in a cell viability assay.

BEN = type: functional, cell-based, Homo sapiens; settings: Homo sapiens, BEN;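 note: growth inhibition of the BEN cell line, read out with a cell viability assay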
Description: SANGER: Inhibition of human BEN cell growth in a cell viability assay.

BT-474 = type: functional, cell-based, Homo sapiens; settings: Homo sapiens, BT-474
Description: SANGER: Inhibition of human BT-474 cell growth in a cell viability assay.

C-33-A = type: functional, cell-based, Homo sapiens; settings: Homo sapiens, C-33-A;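 note: cell viability assay measuring growth inhibition of C-33-A cells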
Description: SANGER: Inhibition of human C-33-A cell growth in a cell viability assay.

C3A = type: functional, cell-based, Homo sapiens; settings: Homo sapiens, C3A;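 note: growth inhibition of C3A human cells, quantified with a cell viability readout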
Description: SANGER: Inhibition of human C3A cell growth in a cell viability assay.

CAL-27 = type: functional, cell-based, Homo sapiens; settings: Homo sapiens, CAL-27;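 note: Viability-based readout, IC50 reflecting inhibition of CAL-27 cell growth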
Description: SANGER: Inhibition of human CAL-27 cell growth in a cell viability assay.

CAL-54 = type: functional, cell-based, Homo sapiens; settings: Homo sapiens, CAL-54;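 note: growth inhibition of CAL-54 cells, read out by a viability measurement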
Description: SANGER: Inhibition of human CAL-54 cell growth in a cell viability assay.

TGBC24TKB = type: functional, cell-based, Homo sapiens; settings: Homo sapiens, TGBC24TKB;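 note: growth inhibition of human TGBC24TKB cells, read out with a cell viability assay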
Description: SANGER: Inhibition of human TGBC24TKB cell growth in a cell viability assay.

no-10 = type: functional, cell-based, Homo sapiens; settings: Homo sapiens;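 note: growth inhibition of no-10 cells, read out with a cell viability assay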
Description: SANGER: Inhibition of human no-10 cell growth in a cell viability assay.

CAMA-1 = type: functional, cell-based, Homo sapiens; settings: Homo sapiens, CAMA-1;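 note: growth inhibition of CAMA-1 cells, read out with a cell viability assay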
Description: SANGER: Inhibition of human CAMA-1 cell growth in a cell viability assay.

COLO-679 = type: functional, cell-based, Homo sapiens; settings: Homo sapiens, COLO-679
Description: SANGER: Inhibition of human COLO-679 cell growth in a cell viability assay.

For `CC(=O)O[C@@]12CO[C@@H]1C[C@H](O)[C@@]1(C)C(=O)[C@H](O)C3=C(C)[C@@H](OC(=O)[C@H](O)[C@@H](NC(=O)OC(C)(C)C)c4ccccc4)C[C@@](O)([C@@H](OC(=O)c4ccccc4)[C@H]21)C3(C)C` [DOCETAXEL], the IC50 (COR-L105) was > 10 nM, the IC50 (Calu-3) was > 10 nM and the IC50 (D-336MG) was 1.69 nM. The IC50 (D-392MG) was > 10 nM, the IC50 (DK-MG) was 8.6 nM and the IC50 (DMS-79) was > 10 nM. For the same compound, the IC50 (EC-GI-10) was 0.592 nM, the IC50 (EKVX) was > 10 nM and the IC50 (EW-1) was 2.98 nM. For the same compound, the IC50 (EW-24) was 4.33 nM, the IC50 (HLE) was 4.05 nM and the IC50 (HSC-3) was 0.132 nM. The IC50 (HT-1376) was > 10 nM, the IC50 (Hs-578T) was 2.72 nM and the IC50 (LN-405) was 4.82 nM. The IC50 (LU-99A) was > 10 nM, the IC50 (MDA-MB-361) was 2.81 nM and the IC50 (MDA-MB-415) was 2.74 nM. For the same compound, the IC50 (MSTO-211H) was > 10 nM, the IC50 (Mo) was > 10 nM and the IC50 (NCI-H2030) was > 10 nM. For the same compound, the IC50 (NCI-H2052) was 7.27 nM, the IC50 (NCI-H226) was 3.68 nM and the IC50 (NCI-H596) was > 10 nM. The IC50 (PANC-03-27) was 1.54 nM, the IC50 (PC-14) was 2.09 nM and the IC50 (QIMR-WIL) was 4.38 nM. The IC50 (RERF-LC-MS) was 1.13 nM, the IC50 (SK-HEP1) was 2.34 nM and the IC50 (SK-MEL3) was > 10 nM. The IC50 (SN12C) was 5.5 nM, the IC50 (SNB-75) was 3.81 nM and the IC50 (SW1088) was 2.95 nM. For the same compound, the IC50 (SW13) was 1.69 nM, the IC50 (SW1417) was 2.76 nM and the IC50 (TCC-SUP) was > 10 nM. The IC50 (8305C) was 5.76 nM, the IC50 (A-431) was > 10 nM and the IC50 (A498) was 0.278 nM. The IC50 (A673) was 2.35 nM, the IC50 (BEN) was > 10 nM and the IC50 (BT-474) was > 10 nM. The IC50 (C-33-A) was 2.66 nM, the IC50 (C3A) was > 10 nM and the IC50 (CAL-27) was 0.339 nM. For the same compound, the IC50 (CAL-54) was > 10 nM, the IC50 (TGBC24TKB) was 7.81 nM and the IC50 (no-10) was 7.88 nM. For the same compound, the IC50 (CAMA-1) was 1.31 nM and the IC50 (COLO-679) was > 10 nM.

For `COc1cc([C@@H]2c3cc4c(cc3[C@@H](O[C@@H]3O[C@@H]5CO[C@@H](C)O[C@H]5[C@H](O)[C@H]3O)[C@H]3COC(=O)[C@H]23)OCO4)cc(OC)c1O` [ETOPOSIDE], the IC50 (COR-L105) was 9570 nM, the IC50 (Calu-3) was 496 nM and the IC50 (D-336MG) was > 16000 nM. For the same compound, the IC50 (D-392MG) was > 16000 nM, the IC50 (DK-MG) was > 16000 nM and the IC50 (DMS-79) was > 16000 nM. For the same compound, the IC50 (EC-GI-10) was > 16000 nM, the IC50 (EKVX) was > 16000 nM and the IC50 (EW-1) was 1460 nM. For the same compound, the IC50 (EW-24) was > 16000 nM, the IC50 (HLE) was 534 nM and the IC50 (HSC-3) was 1440 nM. For the same compound, the IC50 (HT-1376) was 5820 nM, the IC50 (Hs-578T) was > 16000 nM and the IC50 (LN-405) was > 16000 nM. The IC50 (LU-99A) was 2430 nM, the IC50 (MDA-MB-361) was > 16000 nM and the IC50 (MDA-MB-415) was > 16000 nM. For the same compound, the IC50 (MSTO-211H) was > 16000 nM, the IC50 (Mo) was > 16000 nM and the IC50 (NCI-H2030) was 230 nM. For the same compound, the IC50 (NCI-H2052) was 11500 nM, the IC50 (NCI-H226) was 11200 nM and the IC50 (NCI-H596) was > 16000 nM. For the same compound, the IC50 (PANC-03-27) was 1640 nM, the IC50 (PC-14) was 9720 nM and the IC50 (QIMR-WIL) was 155 nM. The IC50 (RERF-LC-MS) was 2490 nM, the IC50 (SK-HEP1) was 267 nM and the IC50 (SK-MEL3) was 10100 nM. For the same compound, the IC50 (SN12C) was 1880 nM, the IC50 (SNB-75) was 10900 nM and the IC50 (SW1088) was > 16000 nM. The IC50 (SW13) was 1800 nM, the IC50 (SW1417) was > 16000 nM and the IC50 (TCC-SUP) was 11600 nM. The IC50 (8305C) was 2320 nM, the IC50 (A-431) was 798 nM and the IC50 (A498) was > 16000 nM. The IC50 (A673) was 2160 nM, the IC50 (BEN) was > 16000 nM and the IC50 (BT-474) was > 16000 nM. It also gave an IC50 (C-33-A) of 862 nM, an IC50 (C3A) of 7930 nM and an IC50 (CAL-27) of 10400 nM. For the same compound, the IC50 (CAL-54) was 8920 nM, the IC50 (TGBC24TKB) was > 16000 nM and the IC50 (no-10) was 3490 nM. For the same compound, the IC50 (CAMA-1) was 13000 nM and the IC50 (COLO-679) was 163 nM.

In the case of `Cc1cnc(-c2cnc(NCCNc3ccc(C#N)cn3)nc2-c2ccc(Cl)cc2Cl)[nH]1` [LADUVIGLUSIB], the IC50 (COR-L105) is reported as > 2560 nM, the IC50 (Calu-3) is reported as > 2560 nM and the IC50 (D-336MG) is reported as 846 nM. The IC50 (D-392MG) was > 2560 nM, the IC50 (DK-MG) was > 2560 nM and the IC50 (DMS-79) was > 2560 nM. The IC50 (EC-GI-10) was > 2560 nM, the IC50 (EKVX) was > 2560 nM and the IC50 (EW-1) was > 2560 nM. The IC50 (EW-24) was > 2560 nM, the IC50 (HLE) was > 2560 nM and the IC50 (HSC-3) was > 2560 nM. For the same compound, the IC50 (HT-1376) was > 2560 nM, the IC50 (Hs-578T) was > 2560 nM and the IC50 (LN-405) was > 2560 nM. The IC50 (LU-99A) was > 2560 nM, the IC50 (MDA-MB-361) was > 2560 nM and the IC50 (MDA-MB-415) was > 2560 nM. For the same compound, the IC50 (MSTO-211H) was > 2560 nM, the IC50 (Mo) was > 2560 nM and the IC50 (NCI-H2030) was > 2560 nM. The IC50 (NCI-H2052) was > 2560 nM, the IC50 (NCI-H226) was > 2560 nM and the IC50 (NCI-H596) was > 2560 nM. For the same compound, the IC50 (PANC-03-27) was > 2560 nM, the IC50 (PC-14) was > 2560 nM and the IC50 (QIMR-WIL) was > 2560 nM. The IC50 (RERF-LC-MS) was > 2560 nM, the IC50 (SK-HEP1) was > 2560 nM and the IC50 (SK-MEL3) was > 2560 nM. The IC50 (SN12C) was > 2560 nM, the IC50 (SNB-75) was > 2560 nM and the IC50 (SW1088) was > 2560 nM. The IC50 (SW13) was > 2560 nM, the IC50 (SW1417) was > 2560 nM and the IC50 (TCC-SUP) was > 2560 nM. The IC50 (8305C) was > 2560 nM, the IC50 (A-431) was > 2560 nM and the IC50 (A498) was 1300 nM. The IC50 (A673) was > 2560 nM, the IC50 (BEN) was > 2560 nM and the IC50 (BT-474) was > 2560 nM. The IC50 (C-33-A) was > 2560 nM, the IC50 (C3A) was > 2560 nM and the IC50 (CAL-27) was > 2560 nM. The IC50 (CAL-54) was > 2560 nM, the IC50 (TGBC24TKB) was > 2560 nM and the IC50 (no-10) was > 2560 nM. For the same compound, the IC50 (CAMA-1) was > 2560 nM and the IC50 (COLO-679) was > 2560 nM.
